According to patent US12435089B2, “3-oxadiazolyl substituted pyrazolo[1,5,a]pyrimidines for ROS1, NTRK, and ALK mediated diseases” (TYK MEDICINES, INC., priority 2019, dated 2025):
Like-named read-outs stand apart in the source and are kept apart here.

How the values were obtained:
[1] = molecular target: TRKB (Homo sapiens (Human), UniProt Q16620); experiment: Radio-tagged HotSpot kinase assay, TRKB; assay type: biochemical; details: 33P-ATP, 120 min, room temperature
Procedure: (§2) Inhibition of protein kinase activity by compounds was carried out on the Radio-tagged HotSpot kinase experimental platform of Reaction Biology Corporation. Fresh reaction solution (20 mM HEPESpH 7.5, 10 mM MgCl2, 1 mM EGTA, 0.02% Brij35, 0.02 mg/ml BSA, 0.1 mM Na3VO4, 2 mM DTT, 1% DMSO) containing corresponding substrates was prepared, cofactor and kinase to be tested were added into the above solution and mixed gently. Echo550 pipetting system was used to add the test compound DMSO solution to each well (the blank control group was added with the corresponding volume of DMSO), then 33P-ATP (with a final specific activity of 0.01 μCi/μL) was added to start the reaction. The reaction solution was incubated at room temperature for 120 minutes.

[2] = molecular target: TRKC (Homo sapiens (Human), UniProt Q16288); experiment: Radio-tagged HotSpot kinase assay, TRKC; assay type: biochemical; details: 33P-ATP, 120 min, room temperature
Procedure: as §2

[3] = molecular target: ROS1 (Homo sapiens (Human), UniProt P08922); experiment: Radio-tagged HotSpot kinase assay, ROS1
Procedure: as §2

[4] = molecular target: TRKA (Homo sapiens (Human), UniProt P04629); experiment: Radio-tagged HotSpot kinase assay, TRKA;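 note: kinase activity measured through incorporation of 33P from labelled ATP into substrate, 120 min at room temperature, relative to a DMSO-only blank control, reported as inhibition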
Procedure: as §2

[5] = molecular target: TRKA (G595R) (Homo sapiens (Human), UniProt P04629, G595R); experiment: Radio-tagged HotSpot kinase assay, TRKA (G595R)
Procedure: as §2

[6] = molecular target: ROS1 (G2032R) (Homo sapiens (Human), UniProt P08922, G2032R); experiment: Radio-tagged HotSpot kinase assay, ROS1 (G2032R)
Procedure: as §2

[7] = molecular target: TRKA (G677C) (Homo sapiens, UniProt P04629, G667C); experiment: Radio-tagged HotSpot kinase assay, TRKA (G677C); assay type: biochemical; details: 33P-ATP, 120 min, room temperature
Procedure: as §2

[8] = molecular target: ALK (G1202R) (Homo sapiens (Human), UniProt Q9UM73, G1202R); experiment: Radio-tagged HotSpot kinase assay, ALK (G1202R); assay type: biochemical; details: 33P-ATP, 120 min, room temperature
Procedure: as §2

[9] = tested on: Ba/F3-CD74-ROS1; experiment: Inhibition of cell proliferation (CellTiter-Glo), Ba/F3-CD74-ROS1; assay type: cell-based; details: 72 hours
Procedure: (§1) The experiment of inhibiting cell proliferation by compounds was carried out in Hefei Zhongkeprecedo Biomedical Technology Co., Ltd. The Ba/F3 engineered cell line stably transfected with different kinase genes was recovered with RPMI 1640 medium (Biological Industries, Israel)+10% fetal bovine serum (Biological Industries, Israel)+1% double antibody (Penicillin Streptomycin solution, Coring, USA) and cultivated two generations. The logarithmic growth phase cell suspension was taken, and 2000 cells/well were inoculated on 96-well white cell culture plate (Corning 3917, NY, USA) with a volume of 95 μL per well. 5 μL of 20×DMSO solution of the compound to be tested was added into the culture plate containing 95 μL of cell suspension. The blank control group was added with corresponding volume of DMSO, mixed well, and incubated in a 5% CO2 incubator at 37° C. for 72 hours. CellTiter-Glo was used to detect cell viability.

[10] = tested on: Ba/F3-CD74-ROS1-G2032R; experiment: Inhibition of cell proliferation (CellTiter-Glo), Ba/F3-CD74-ROS1-G2032R; assay type: cell-based; details: 72 hours;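 note: Ba/F3 cell line expressing the CD74-ROS1 fusion with G2032R mutation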
Procedure: as §1

[11] = tested on: Ba/F3-LMNA-NTRK1; experiment: Inhibition of cell proliferation (CellTiter-Glo), Ba/F3-LMNA-NTRK1; assay type: cell-based; details: 72 hours
Procedure: as §1

[12] = tested on: Ba/F3-LMNA-NTRK1-G595R; experiment: Inhibition of cell proliferation (CellTiter-Glo), Ba/F3-LMNA-NTRK1-G595R; assay type: cell-based; details: 72 hours
Procedure: as §1

[13] = molecular target: ALK (Homo sapiens (Human), UniProt Q9UM73); experiment: Radio-tagged HotSpot kinase assay, ALK; assay type: biochemical; details: 33P-ATP, 120 min, room temperature
Procedure: as §2

[14] = read-out: ROS1 (IC50/nM), 33P-ATP, 120 min, room temperature
[15] = read-out: ROS1 (G2032R) (IC50/nM), 33P-ATP, 120 min, room temperature
[16] = read-out: TRKA (IC50/nM), 33P-ATP, 120 min, room temperature
[17] = read-out: TRKA (G595R) (IC50/nM), 33P-ATP, 120 min, room temperature

Chain of ROS1 (G2032R) (P08922 28-2347 G2032R): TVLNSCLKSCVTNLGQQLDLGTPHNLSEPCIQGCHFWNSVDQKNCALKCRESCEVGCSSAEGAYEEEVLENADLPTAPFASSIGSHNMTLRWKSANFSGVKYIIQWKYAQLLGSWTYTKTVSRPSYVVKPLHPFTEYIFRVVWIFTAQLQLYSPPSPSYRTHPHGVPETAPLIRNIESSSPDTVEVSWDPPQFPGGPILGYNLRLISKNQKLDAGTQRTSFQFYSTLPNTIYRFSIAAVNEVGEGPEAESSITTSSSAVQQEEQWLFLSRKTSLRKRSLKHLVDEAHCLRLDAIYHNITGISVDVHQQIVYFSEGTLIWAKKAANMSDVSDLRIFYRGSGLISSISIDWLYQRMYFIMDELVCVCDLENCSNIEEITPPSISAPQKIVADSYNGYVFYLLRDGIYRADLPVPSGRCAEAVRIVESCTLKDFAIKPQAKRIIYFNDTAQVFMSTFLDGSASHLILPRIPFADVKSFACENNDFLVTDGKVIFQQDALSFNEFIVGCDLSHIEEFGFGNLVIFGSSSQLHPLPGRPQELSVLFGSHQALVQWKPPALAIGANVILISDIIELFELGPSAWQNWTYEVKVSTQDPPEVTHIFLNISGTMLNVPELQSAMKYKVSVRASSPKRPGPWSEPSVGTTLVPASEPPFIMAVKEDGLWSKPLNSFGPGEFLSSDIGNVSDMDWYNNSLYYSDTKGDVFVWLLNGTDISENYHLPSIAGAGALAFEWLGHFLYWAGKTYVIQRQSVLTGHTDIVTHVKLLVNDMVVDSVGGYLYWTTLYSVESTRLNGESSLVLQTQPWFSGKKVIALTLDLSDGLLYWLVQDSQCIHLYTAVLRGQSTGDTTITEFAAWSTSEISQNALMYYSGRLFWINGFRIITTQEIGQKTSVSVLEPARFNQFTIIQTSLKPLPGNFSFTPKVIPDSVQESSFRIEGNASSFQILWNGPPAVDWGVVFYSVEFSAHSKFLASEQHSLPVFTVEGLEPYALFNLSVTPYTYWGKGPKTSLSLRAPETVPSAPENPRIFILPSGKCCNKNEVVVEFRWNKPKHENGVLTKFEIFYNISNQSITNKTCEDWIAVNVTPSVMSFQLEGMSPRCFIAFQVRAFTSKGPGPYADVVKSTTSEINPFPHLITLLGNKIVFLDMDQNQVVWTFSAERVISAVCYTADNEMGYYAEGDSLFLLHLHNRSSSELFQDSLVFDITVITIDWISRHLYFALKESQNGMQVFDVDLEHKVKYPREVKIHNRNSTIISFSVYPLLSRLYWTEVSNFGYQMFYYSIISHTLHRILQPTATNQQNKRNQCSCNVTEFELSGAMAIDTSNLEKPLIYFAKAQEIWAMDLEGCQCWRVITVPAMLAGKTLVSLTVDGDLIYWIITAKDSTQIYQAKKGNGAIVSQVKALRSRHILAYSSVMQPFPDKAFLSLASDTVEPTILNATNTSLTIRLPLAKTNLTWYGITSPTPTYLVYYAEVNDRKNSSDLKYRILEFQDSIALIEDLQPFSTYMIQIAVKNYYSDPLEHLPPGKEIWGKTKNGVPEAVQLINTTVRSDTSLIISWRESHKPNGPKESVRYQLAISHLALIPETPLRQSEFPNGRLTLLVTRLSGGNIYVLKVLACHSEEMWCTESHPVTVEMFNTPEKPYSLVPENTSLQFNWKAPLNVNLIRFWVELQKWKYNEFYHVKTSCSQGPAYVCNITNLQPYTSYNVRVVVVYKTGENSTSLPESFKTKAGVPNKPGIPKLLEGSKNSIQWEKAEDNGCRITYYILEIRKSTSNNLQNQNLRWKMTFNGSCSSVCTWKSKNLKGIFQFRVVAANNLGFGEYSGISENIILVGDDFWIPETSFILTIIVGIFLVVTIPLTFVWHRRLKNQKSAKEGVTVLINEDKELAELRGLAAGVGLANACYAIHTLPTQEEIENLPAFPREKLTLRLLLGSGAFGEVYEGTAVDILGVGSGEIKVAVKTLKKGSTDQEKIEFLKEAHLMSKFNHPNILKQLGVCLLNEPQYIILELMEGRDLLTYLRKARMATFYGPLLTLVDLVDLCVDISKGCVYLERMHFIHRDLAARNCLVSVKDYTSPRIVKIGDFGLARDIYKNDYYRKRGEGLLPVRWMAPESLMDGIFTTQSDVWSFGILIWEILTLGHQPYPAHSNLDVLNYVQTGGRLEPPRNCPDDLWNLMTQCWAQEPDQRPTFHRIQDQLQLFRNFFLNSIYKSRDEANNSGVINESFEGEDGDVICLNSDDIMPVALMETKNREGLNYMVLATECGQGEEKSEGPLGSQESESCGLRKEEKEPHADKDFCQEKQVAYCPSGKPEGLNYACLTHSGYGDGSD
Chain of TRKC (Q16288 32-839): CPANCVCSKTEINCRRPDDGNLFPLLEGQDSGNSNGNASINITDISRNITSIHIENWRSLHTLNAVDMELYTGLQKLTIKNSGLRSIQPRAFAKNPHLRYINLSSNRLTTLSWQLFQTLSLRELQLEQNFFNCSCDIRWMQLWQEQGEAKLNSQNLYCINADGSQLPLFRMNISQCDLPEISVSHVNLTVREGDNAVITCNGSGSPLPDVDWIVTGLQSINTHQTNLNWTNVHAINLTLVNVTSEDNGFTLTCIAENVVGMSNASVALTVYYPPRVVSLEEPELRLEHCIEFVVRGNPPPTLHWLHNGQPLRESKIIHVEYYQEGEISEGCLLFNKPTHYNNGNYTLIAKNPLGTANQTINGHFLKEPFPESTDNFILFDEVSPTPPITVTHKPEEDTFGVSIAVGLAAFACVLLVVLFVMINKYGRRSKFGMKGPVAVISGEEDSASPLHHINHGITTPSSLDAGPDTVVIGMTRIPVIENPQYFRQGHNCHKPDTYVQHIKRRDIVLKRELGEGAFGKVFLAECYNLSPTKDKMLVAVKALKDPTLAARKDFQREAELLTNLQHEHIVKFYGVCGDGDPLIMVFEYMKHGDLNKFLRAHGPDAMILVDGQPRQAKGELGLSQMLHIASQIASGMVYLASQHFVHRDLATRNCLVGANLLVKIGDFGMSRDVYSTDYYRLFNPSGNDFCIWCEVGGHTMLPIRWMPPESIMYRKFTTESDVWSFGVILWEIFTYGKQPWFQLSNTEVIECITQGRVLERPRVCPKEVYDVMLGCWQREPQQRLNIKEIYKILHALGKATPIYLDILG
Chain of TRKA (P04629 33-796): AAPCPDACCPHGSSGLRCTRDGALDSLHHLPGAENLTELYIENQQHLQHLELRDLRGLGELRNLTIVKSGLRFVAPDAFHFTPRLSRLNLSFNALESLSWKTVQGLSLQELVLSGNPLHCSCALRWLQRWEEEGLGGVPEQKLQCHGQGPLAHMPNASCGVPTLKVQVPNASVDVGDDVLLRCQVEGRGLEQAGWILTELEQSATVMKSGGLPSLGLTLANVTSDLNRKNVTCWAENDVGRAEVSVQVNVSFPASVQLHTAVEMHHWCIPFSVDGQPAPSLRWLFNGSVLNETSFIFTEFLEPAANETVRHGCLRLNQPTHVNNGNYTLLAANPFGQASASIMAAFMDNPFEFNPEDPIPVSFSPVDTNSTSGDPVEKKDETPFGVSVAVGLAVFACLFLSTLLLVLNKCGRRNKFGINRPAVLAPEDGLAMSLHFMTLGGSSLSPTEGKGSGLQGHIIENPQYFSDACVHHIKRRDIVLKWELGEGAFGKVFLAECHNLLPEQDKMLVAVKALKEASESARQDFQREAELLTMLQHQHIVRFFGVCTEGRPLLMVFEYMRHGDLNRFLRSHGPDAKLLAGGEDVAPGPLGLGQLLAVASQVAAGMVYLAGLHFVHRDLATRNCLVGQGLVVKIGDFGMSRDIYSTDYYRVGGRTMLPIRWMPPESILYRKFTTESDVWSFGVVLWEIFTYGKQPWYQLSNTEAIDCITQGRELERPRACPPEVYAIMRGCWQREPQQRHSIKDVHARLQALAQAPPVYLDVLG
Chain of TRKA (G595R) (P04629 33-796 G595R): as the sequence (P04629 33-796) above, with G563R counted along it
Chain of ROS1 (P08922 28-2347): as the sequence (P08922 28-2347 G2032R) above, with R2005G counted along it
Chain of TRKB (Q16620 32-822): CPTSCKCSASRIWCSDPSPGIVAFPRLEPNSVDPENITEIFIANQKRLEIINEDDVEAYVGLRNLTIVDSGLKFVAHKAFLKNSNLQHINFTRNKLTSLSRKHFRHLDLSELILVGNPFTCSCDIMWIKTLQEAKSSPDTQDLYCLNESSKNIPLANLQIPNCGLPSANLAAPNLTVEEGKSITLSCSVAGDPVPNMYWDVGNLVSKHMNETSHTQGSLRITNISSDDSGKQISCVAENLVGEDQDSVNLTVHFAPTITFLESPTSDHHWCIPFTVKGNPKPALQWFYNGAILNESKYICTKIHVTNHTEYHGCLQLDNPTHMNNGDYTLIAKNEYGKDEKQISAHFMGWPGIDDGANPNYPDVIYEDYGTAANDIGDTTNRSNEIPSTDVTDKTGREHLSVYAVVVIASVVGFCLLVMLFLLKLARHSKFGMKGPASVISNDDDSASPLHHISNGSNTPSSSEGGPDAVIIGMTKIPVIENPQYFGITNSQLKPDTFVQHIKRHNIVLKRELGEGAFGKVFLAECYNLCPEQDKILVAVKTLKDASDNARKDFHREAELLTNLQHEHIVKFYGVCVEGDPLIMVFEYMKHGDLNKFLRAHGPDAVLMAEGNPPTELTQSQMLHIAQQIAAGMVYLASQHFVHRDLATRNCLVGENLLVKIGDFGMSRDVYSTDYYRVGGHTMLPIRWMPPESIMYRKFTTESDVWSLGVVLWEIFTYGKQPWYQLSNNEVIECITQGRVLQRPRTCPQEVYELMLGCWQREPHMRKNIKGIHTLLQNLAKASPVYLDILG
Chain of TRKA (G677C) (P04629 33-796 G667C limits assumed): as the sequence (P04629 33-796) above, with G635C counted along it

| IC50 [1] | IC50 [2] | IC50 [9] | IC50 [10] | IC50 [11] | IC50 [12] | SMILES | also measured |
| --- | --- | --- | --- | --- | --- | --- | --- |
| 0.5 to 5 nM | 0.5 to 5 nM | – | – | – | – | Cc1nc(-c2cnn3ccc(N[C@H](C)c4cc(F)ccc4O)nc23)no1 [Example 67] | IC50 [3]: 0.5 to 5 nM; IC50 [4]: 5 to 50 nM; IC50 [5]: 5 to 50 nM; IC50 [6]: 5 to 50 nM |
| 0.5 to 5 nM | 0.5 to 5 nM | – | – | – | – | C[C@@H](Nc1ccn2ncc(C3=NOC(C)(C)N3)c2n1)c1cc(F)ccc1Br [Example 23] | IC50 [7]: 5 to 50 nM; IC50 [8]: 5 to 50 nM; IC50 [3]: 0.5 to 5 nM; IC50 [4]: 0.5 to 5 nM; IC50 [5]: 5 to 50 nM; IC50 [6]: 0.5 to 5 nM |
| – | – | – | – | – | – | COc1ccc(F)cc1[C@@H](C)Nc1ccn2ncc(C3=NOC4(CCOCC4)N3)c2n1 [Example 46] | IC50 [7]: 5 to 50 nM |
| – | – | – | – | – | – | COc1ccc(F)cc1[C@@H](C)Nc1ccn2ncc(C3=NOC4(CCCCC4)N3)c2n1 [Example 45] | IC50 [7]: 5 to 50 nM |
| – | – | 2.8 nM | 10.3 nM | 2.1 nM | 3.3 nM | C[C@@H](Nc1ccn2ncc(C3=NOC(C)(C)N3)c2n1)c1cc(F)ccc1OCC(F)(F)F [Example 3] | – |
| – | – | 5.2 nM | 45.9 nM | 5.1 nM | 12.5 nM | C[C@@H](Nc1ccn2ncc(C3=NOC(C)(C)N3)c2n1)c1cc(F)cc(F)c1F [Example 13] | – |
| < 0.5 nM | < 0.5 nM | 6.6 nM | 47.9 nM | 26.7 nM | 25.4 nM | COC(=O)N1CCC2(CC1)NC(c1cnn3ccc(N[C@H](C)c4cc(F)ccc4OC)nc13)=NO2 [Example 55] | IC50 [3, 14]: < 0.5 nM; IC50 [4]: 0.5 to 5 nM; IC50 [5]: 0.5 to 5 nM; IC50 [6, 15]: < 0.5 nM |
| – | – | 4.9 nM | 34.8 nM | 3.8 nM | 8.6 nM | C[C@@H](Nc1ccn2ncc(C3=NOC(C)(C)N3)c2n1)c1cc(F)cnc1OCC(F)(F)F [Example 15] | – |
| – | – | 52.1 nM | – | 45.8 nM | 161 nM | COc1cc(F)c(F)cc1[C@@H](C)Nc1ccn2ncc(C3=NOC(C)(C)N3)c2n1 [Example 32] | – |
| – | – | – | – | – | – | C[C@@H](Nc1ccn2ncc(C3=NOC(C)(C)N3)c2n1)c1ccc(F)cc1 [Example 25] | IC50 [4]: 50 to 500 nM |
| – | – | 6 nM | 43.7 nM | 2 nM | 2.8 nM | [2H]C([2H])([2H])Oc1ccc(F)cc1[C@@H](C)Nc1nc2c(C3=NOC(C)(C)N3)cnn2cc1F [Example 6] | – |
| – | – | – | 43.6 nM | – | – | COc1ccc(F)cc1[C@@H](C)Nc1nc2c(C3=NOC(C)(C)N3)cnn2cc1F [Example 20] | – |
| – | – | – | – | – | 113 nM | COc1c(F)ccc(F)c1[C@@H](C)Nc1ccn2ncc(C3=NOC(C)(C)N3)c2n1 [Example 2] | – |
| < 0.5 nM | < 0.5 nM | – | – | – | – | CCCCC1NC(c2cnn3ccc(N[C@H](C)c4cc(F)ccc4O)nc23)=NO1 (some centres unmarked) [Example 69] | IC50 [3, 14]: < 0.5 nM; IC50 [4, 16]: < 0.5 nM; IC50 [5, 17]: < 0.5 nM; IC50 [6, 15]: < 0.5 nM |
| – | – | 8.4 nM | 81.1 nM | 18.2 nM | 30.1 nM | C[C@@H](Nc1ccn2ncc(C3=NOC(C)(C)N3)c2n1)c1cc(F)cc2ccccc12 [Example 53] | – |
| 0.5 to 5 nM | 0.5 to 5 nM | 32.2 nM | 185 nM | 76.9 nM | 110 nM | COc1ccc(F)cc1[C@@H](C)Oc1ccn2ncc(C3=NOC(C)(C)N3)c2n1 [Example 71] | IC50 [3]: 0.5 to 5 nM; IC50 [4]: 0.5 to 5 nM; IC50 [5]: 0.5 to 5 nM; IC50 [6]: 0.5 to 5 nM |
| 0.5 to 5 nM | – | 26.2 nM | 155 nM | 100 nM | 890 nM | C[C@@H](Oc1ccn2ncc(C3=NOC(C)(C)N3)c2n1)c1c(Cl)ccc(F)c1Cl [Example 9] | IC50 [7]: 50 to 500 nM; IC50 [13]: 50 to 500 nM |
| – | – | – | – | – | – | COc1ccc(F)cc1[C@@H](C)Nc1ccn2ncc(C3=NOC(C)(c4ccccn4)N3)c2n1 (some centres unmarked) [Example 48] | IC50 [7]: 50 to 500 nM |
| < 0.5 nM | < 0.5 nM | – | – | – | – | C[C@@H](Nc1ccn2ncc(C3=NOC(C)(C)N3)c2n1)c1cc(F)ccc1O [Example 68] | IC50 [3, 14]: < 0.5 nM; IC50 [4, 16]: < 0.5 nM; IC50 [5, 17]: < 0.5 nM; IC50 [6, 15]: < 0.5 nM |
| – | – | – | – | – | 387 nM | COc1ccc(OC)c([C@@H](C)Nc2ccn3ncc(C4=NOC(C)(C)N4)c3n2)c1 [Example 29] | – |
